From patent US7166296B2, “Pharmaceutical formulations and ligands for use therein; mimetics for UEA-1” (Sarlan, Ltd., priority 2001, dated 2007)
Converted amounts (≈) assume the structure as drawn.

Columns and labels:
[1] = tested on: UEA-1 binding sites on Caco-2 cell membrane preparations; assay: Single tier competition assay: inhibition of biotinylated UEA-1 binding, compound and biotinylated UEA-1 incubated together; design: species or system human
Description: (§1) The epithelial cell binding ability of compounds and mixtures obtained from synthetic combinatorial libraries was determined by competition assays. These assays were set up to measure the inhibition of binding of biotinylated UEA-1 to membrane preparations of the epithelial cell line Caco-2 (colon carcinoma cells-2), by compounds and mixtures of the combinatorial libraries. This cell line is a conventional model for epithelial cells.
(§2) Two competition inhibition assays were used in this case, namely single tier and two tier assays. These assays differed from each other in that in the single tier assay, the mixtures/compounds and the biotinylated UEA-1 were incubated together with the Caco-2 cell membrane preparations, while in case of the two-tier assay, the mixture/compounds were allowed to incubate alone with the cell membranes in the absence of biotinylated UEA-1, which was added in the next step. Addition of the extra step in the two-tier assay was to ensure that the compounds inhibiting the binding of biotinylated UEA-1 to the Caco-2 cell membranes were doing so by themselves binding to surface receptors on the Caco-2 cells and not to the biotinylated UEA-1. Each assay will be described in detail.
(§3) • 1. Confluent Caco-2 cell monolayers (grown in 75 cm^2 flasks for up to 1 week at 37° C. and 5% CO2) were washed twice in Dulbecco's PBS (DPBS). • 2. Cell monolayers were treated with 10 mM EDTA-DPBS for 5–10 min at 37° C. and cells were harvested by centrifugation at 1000 rpm for 5 min. • 3. Cells were washed 3 times in DPBS. • 4. […] The cells were homogenised for 30 sec. • 6. The homogenates were centrifuged in hard walled tubes at 40,000 rpm for 45 min at 4° C. • 7. […] The supernatant was removed and stored on ice. The procedure was repeated adding the second supernatant to the first. • 8. The protein concentration was determined using e.g. a Bio-Rad protein assay. • 9. All fractions were stored at −80° C. prior to use. Single Tier Assays: • 1. 96-well microtiter plates were coated with membrane preparations of Caco-2 cells either by allowing them to incubate on the plates for 2½ hours at room temperature or by incubating them overnight at 4° C. 100 μl of 10 μg/ml (in 0.05 M carbonate buffer, pH 9.6) of membrane preparation was added to each well. • 2. The plates were flicked out, patted dry and blocked with bovine serum albumin (BSA)/DPBS (200 μl/well) for 1 to 4 hours at room temperature after which they were washed three times in water. • 3. […] Control wells were also set up in which the Caco-2 cell membrane preparations were incubated with unconjugated UEA-1. […] Following overnight incubation the plates were washed thoroughly (3–6 times). The plates were flicked out, patted dry and biotinylated UEA-1 was detected with commercial Streptavidin conjugated to horseradish peroxidase (HRP) (CalBiochem). […] The plates were left to incubate for an hour at room temperature. • 6. The plates were then washed 3–6 times and the biotin-streptavidin binding was detected by adding an HRP substrate OPD (orthophenyl diamine) to each well. 100 μl/well of this substrate at a final concentration of 1.6 mg/ml was added to each well. Before adding to the wells, this substrate was activated by addition of 50 μl of 3% H2O2 per plate and the reaction was allowed to develop in the dark. • 7. The reaction was stopped by adding 50 μl of 4 N H2SO4 to each well after approximately 5–10 minutes or when sufficient colour had developed. The OD490 (absorbance at 490 nm) of each well was measured using a conventional 96 well plate reading spectrophotometer. Two Tier Assays: • 1. 96 well plates were coated with Caco-2 cell membrane preparations in the same manner as described in the single tier assay. • 2. […] 100 μl at these final concentrations were added to each well. • 4. The plates were then left to incubate overnight, a step that would allow the mixtures and compounds to interact with the Caco-2 cell membranes without the presence of the competitor (biotinylated UEA-1) itself. • 5. […]

[2] = tested on: UEA-1 binding sites on Caco-2 cell membrane preparations; assay: Two tier competition assay: compound incubated alone with membranes, biotinylated UEA-1 added in next step; design: species or system human; conditions: for Avg % Inhib: Two Tier Assay, library TP1012
Description: as §1, §2, §3

[3] = library MSI 27, read-out: Single Tier Assay IC50
[4] = library MSI 27, read-out: Two Tier Assay IC50

| IC50 [1, 3] | Two Tier Assay IC50 ([2]; library MSI 27) | IC50 [2, 4] | Compound | Avg % Inhib ([2]; 50 μg/ml) | Avg % Inhib ([2]; 250 μg/ml) | also measured |
| --- | --- | --- | --- | --- | --- | --- |
| 362 µM | 86.81 µg/mL | 282 µM | CC(=O)NC(CCCCNC(=O)c1ccc(O)cc1)C(N)=O (stereo not drawn) [Cpd 15] | – | – | Single Tier Assay IC50 ([1]; library MSI 27): 111.40 µg/mL |
| 773 µM | 108.30 µg/mL | 335 µM | CC(=O)NC(CCCCNC(=O)c1cc(O)cc(O)c1)C(N)=O (stereo not drawn) [Cpd 16] | – | – | – |
| 130 µM | 95.95 µg/mL | 85.6 µM | COc1cc(C(=O)NCCCCC(NC(=O)c2cc(OC)c(O)c(OC)c2)C(=O)NCCCCC(NC(=O)C(CCCCNC(=O)c2cc(OC)c(O)c(OC)c2)NC(=O)c2cc(OC)c(O)c(OC)c2)C(N)=O)cc(OC)c1O (stereo not drawn) [Cpd 17] | – | – | Single Tier Assay IC50 ([1]; library MSI 27): 145.80 µg/mL |
| 186 µM | – | 186 µM | CCOc1cc(C(=O)NCCCCC(NC(=O)c2cc(OCC)c(OCC)c(OCC)c2)C(=O)NCCCCC(NC(=O)C(CCCCNC(=O)c2cc(OCC)c(OCC)c(OCC)c2)NC(=O)c2cc(OCC)c(OCC)c(OCC)c2)C(N)=O)cc(OCC)c1OCC (stereo not drawn) [Cpd 19] | – | – | – |
| 265 µM | – | 265 µM | NC(=O)C(CCCCNC(=O)C(CCCCNC(=O)c1cc(O)cc(O)c1)NC(=O)c1cc(O)cc(O)c1)NC(=O)C(CCCCNC(=O)c1cc(O)cc(O)c1)NC(=O)c1cc(O)cc(O)c1 (stereo not drawn) [Cpd 24] | – | – | – |
| 255 µM | – | 255 µM | CCOc1cc(C(=O)NCCCCC(NC(=O)C(CCCCNC(=O)c2cc(OCC)c(OCC)c(OCC)c2)NC(=O)c2cc(OCC)c(OCC)c(OCC)c2)C(N)=O)cc(OCC)c1OCC (stereo not drawn) [Cpd 27] | – | – | – |
| – | – | – | CCCCC(CNC)N(C)CC(CC1CCCCC1)NC(=O)c1cc(O)c(O)c(O)c1 (stereo not drawn) [compound 86] | 61.61% | 76.23% | – |
| – | – | – | CCCC[C@H](CNC)N(C)C[C@H](CC1CCCCC1)NC(=O)c1cc(O)c(O)c(O)c1 [compound 90] | 53.66% | 69.94% | – |
| – | – | – | CCCC[C@@H](CNC)N(C)C[C@@H](CC1CCCCC1)NC(=O)c1cc(O)c(O)c(O)c1 [compound 92] | 54.8899% | 67.7% | – |
| – | – | – | CCCC[C@@H](CNC)N(C)C[C@H](CC1CCCCC1)NC(=O)c1cc(O)c(O)c(O)c1 [compound 96] | 42.93% | 65.78% | – |
| – | – | – | CNC[C@H](CC(C)C)N(C)C[C@H](Cc1ccccc1)NC(=O)c1cc(O)c(O)c(O)c1 [compound 125] | 61.02% | 77.78% | – |
| – | – | – | CNC[C@H](Cc1ccc(F)cc1)N(C)C[C@H](Cc1ccc(F)cc1)NC(=O)Cc1ccc(Cl)c(Cl)c1 [compound 141] | 41.43% | 72.64% | – |
| – | – | – | CNC[C@H](Cc1ccc(F)cc1)N(C)C[C@H](Cc1ccc(F)cc1)NC(=O)Cc1cccc(C(F)(F)F)c1 [compound 144] | 42.26% | 66.71% | – |

| Compound | IC50 [1, 3] | Two Tier Assay IC50 ([2]; library MSI 27) | IC50 [2, 4] | Avg % Inhib ([2]; 50 μg/ml) | Avg % Inhib ([2]; 250 μg/ml) | also measured |
| --- | --- | --- | --- | --- | --- | --- |
| COc1ccc(C(=O)NCCCCC(NC(=O)c2ccc(OC)c(OC)c2)C(=O)NCCCCC(NC(=O)C(CCCCNC(=O)c2ccc(OC)c(OC)c2)NC(=O)c2ccc(OC)c(OC)c2)C(N)=O)cc1OC (stereo not drawn) [Cpd 18] | 105 µM | 90.21 µg/mL | 85.3 µM | – | – | Single Tier Assay IC50 ([1]; library MSI 27): 111.30 µg/mL |
| NC(=O)C(CCCCNC(=O)C(CCCCNC(=O)c1cc(O)c(O)c(O)c1)NC(=O)c1cc(O)c(O)c(O)c1)NC(=O)C(CCCCNC(=O)c1cc(O)c(O)c(O)c1)NC(=O)c1cc(O)c(O)c(O)c1 (stereo not drawn) [Cpd 22] | 17.4 µM | 2.86 µg/mL | 2.84 µM | – | – | IC 50 (ug/ml) 1st tier ([1]; Table 8, galloyl constructs): 10 µg/mL (≈ 9.9 µM); IC50 ([1]; Table 8, galloyl constructs, read-out: IC 50 (uM) 1st tier (converted)): 10 µM; Single Tier Assay IC50 ([1]; library MSI 27): 17.61 µg/mL; IC 50 (ug/ml) 2nd tier ([2]; Table 8, galloyl constructs): 1 µg/mL (≈ 0.99 µM); IC50 ([2]; Table 8, galloyl constructs, read-out: IC 50 (uM) 2nd tier): 1 µM |
| COc1cc(C(=O)NCCCCC(NC(=O)C(CCCCNC(=O)c2cc(OC)c(OC)c(OC)c2)NC(=O)c2cc(OC)c(OC)c(OC)c2)C(N)=O)cc(OC)c1OC (stereo not drawn) [Cpd 28] | 292 µM | – | 292 µM | – | – | – |
